Measurements published in patent publication US20090175795A1, “CHIMERIC THERAPEUTIC AGENTS” (Amprotein Corporation, priority 2005, published 2009).

How the values were obtained:
blood glucose [1] = assay: GTT assay in rats; assay type: in vivo, rat; details: small numbers
Method: (§1) Similarly GTT assays were also conducted in rats and rabbits in small numbers. All the results support the inhibition of GLP1-Fc-leptin on blood glucose level.

blood glucose [2] = assay: intraperitoneal glucose tolerance test (ip GTT) in mice; assay type: in vivo, mouse; set-up: Blood glucose (X ± SD): unit not given here; details: for effect on blood glucose levels in ip GTT: P<0.05
Method: (§2) First, intraperitoneal glucose tolerance test (ip GTT) was conducted to test GLP -Fc-leptin's action on glucose-dependent insulin secretion. Briefly, mouse blood glucose was measured using one-touch blood glucose strips. A blood sample was obtained from a mouse through tail bleeding. Then, 0.04, 0.1, or 0.2 mg of GLP1-Fc-leptin or control protein human IgG1 Fc fragment were injected ip. Immediately after the injections, 0.2 ml of saturated glucose water solution was injected ip into the mouse. One and two hours later, another blood sample was collected in the same manner for glucose measurement.

blood glucose [3] = assay: GTT assay in rabbits; assay type: in vivo, rabbit; details: small numbers
Method: as §1

[4] = effect on body weight, 7-day ip injection; assay type: in vivo, mouse; details: for Body weight (X ± SD): n = 5, in g (unit assumed)
Method: The effects of GLP1-Fc-leptin on body weight were studied. Mice were injected with 0.1 mg of GLP1-Fc-leptin or human IgG1 Fc fragment in the same manner described above daily for seven days. At days 1 and 7, the body weight of each […] was measured and recorded. […] The body weight was measured on days 1, 4, and 7. Effects of leptin on body weight were studied in the same manner described above. More specifically, mice were injected ip. with 0.1 mg/mouse of human recombinant leptin (R&D Systems, Cat# 398-LP) or human IgG Fc twice a day (9 am and 5 pm) for 7 days.

blood glucose [5] = assay: IP glucose tolerance test repeated at day-1 and day-2 after one injection (long-term effect); assay type: in vivo, mouse; details: for Blood glucose (X ± SD): one injection 0.2 mg, n = 5
Method: as §2, with “measurement. […] The results are summarized in Tables 1-4 below: The above experiment was repeated with GLP1-Fc-leptin (0.2 mg) at day-1 before the glucose tolerance test. A IP glucose tolerance test was conducted twice at day-1 and day-2 respectively.” for “measurement.”

blood glucose [6] = assay: everyday blood glucose level during the 7-day injection period; assay type: in vivo, mouse; details: 0.1 mg daily; for Glucose: one hour after injection, n = 5
Method: In the above experiments, during the 7-day period, blood glucose levels of each mouse were measured and recorded on each day one hour after injection of GLP1-Fc-leptin (0.1 mg) or IgG1 Fc fragment everyday in the morning.

Substance: GLP1-Fc-leptin: fusion protein GLP-1-3xGly-IgG1 Fc-leptin (SEQ ID NO:5), expressed in CHO cells
- effect on blood glucose level in GTT (blood glucose [1]): inhibition
- Blood glucose (X ± SD) (blood glucose [2]; 0.04 mg ip, 1 hour after IP glucose injection, n = 5): 275.8 ± 154.0
- Blood glucose (X ± SD) (blood glucose [2]; 0.04 mg ip, 2 hour after IP glucose injection, n = 5): 98.0 ± 22.7
- Blood glucose (X ± SD) (blood glucose [2]; 0.04 mg ip, before IP glucose injection, n = 5): 98.8 ± 29.2
- Blood glucose (X ± SD) (blood glucose [2]; 0.1 mg ip, 1 hour after IP glucose injection, n = 4): 108.8 ± 44.0
- Blood glucose (X ± SD) (blood glucose [2]; 0.1 mg ip, 2 hour after IP glucose injection, n = 4): 83.0 ± 21.6
- Blood glucose (X ± SD) (blood glucose [2]; 0.1 mg ip, before IP glucose injection, n = 4): 67.3 ± 32.1
- effect on blood glucose levels in ip GTT (blood glucose [2]; 0.1 mg): significantly inhibited
- Blood glucose (X ± SD) (blood glucose [2]; 0.2 mg ip, 1 hour after IP glucose injection, n = 5): 113.0 ± 16.2
- Blood glucose (X ± SD) (blood glucose [2]; 0.2 mg ip, 2 hour after IP glucose injection, n = 5): 82.0 ± 6.2
- Blood glucose (X ± SD) (blood glucose [2]; 0.2 mg ip, before IP glucose injection, n = 5): 84.4 ± 20.5
- effect on blood glucose levels in ip GTT (blood glucose [2]; 0.2 mg): significantly inhibited
- effect on blood glucose level in GTT (blood glucose [3]): inhibition
- body weight lost ([4]; 0.1 mg daily for seven days, at day 7, p<0.05): 11.3%
- Body weight (X ± SD) ([4]; 0.1 mg ip daily for seven days, day 1): 24.7 ± 1.3
- Body weight (X ± SD) ([4]; 0.1 mg ip daily for seven days, day 4): 23.7 ± 2.2
- Body weight (X ± SD) ([4]; 0.1 mg ip daily for seven days, day 7): 21.9 ± 1.4
- Blood glucose (X ± SD) (blood glucose [5]; Day-1 GTT, 1 hour after IP glucose injection): 113.0 ± 16.2
- Blood glucose (X ± SD) (blood glucose [5]; Day-1 GTT, 2 hour after IP glucose injection): 82.0 ± 6.2
- Blood glucose (X ± SD) (blood glucose [5]; Day-1 GTT, before IP glucose injection): 84.4 ± 20.5
- Blood glucose (X ± SD) (blood glucose [5]; Day-2 GTT, 1 hour after IP glucose injection): 106.2 ± 25.7
- Blood glucose (X ± SD) (blood glucose [5]; Day-2 GTT, 2 hour after IP glucose injection): 95.8 ± 21.1
- Blood glucose (X ± SD) (blood glucose [5]; Day-2 GTT, before IP glucose injection): 92.6 ± 25.3
- duration of inhibition of blood glucose level (blood glucose [5]; one injection of 0.2 mg): at least two
- everyday blood glucose levels versus IgG1 Fc fragment (blood glucose [6]; 7-day period): lower blood glucose levels
- Glucose (blood glucose [6]; day 1): 98.0 ± 13.2 mg/dL
- Glucose (blood glucose [6]; day 2): 119.0 ± 25.8 mg/dL
- Glucose (blood glucose [6]; day 3): 91.4 ± 44.6 mg/dL
- Glucose (blood glucose [6]; day 4): 116.0 ± 34.3 mg/dL
- Glucose (blood glucose [6]; day 5): 95.6 ± 33.9 mg/dL
- Glucose (blood glucose [6]; day 6): 102.3 ± 25.7 mg/dL
- Glucose (blood glucose [6]; day 7): 160.4 ± 18.6 mg/dL

Substance: Human leptin: human recombinant leptin (R&D Systems, Cat# 398-LP)
- weight loss relative to GLP1-Fc-Leptin ([4]; 0.1 mg/mouse ip twice a day for 7 days): less than half of the weight loss that GLP1-Fc-Leptin induced
- Body weight (X ± SD) ([4]; leptin study, 0.1 mg/mouse ip twice a day for 7 days, day 1): 20.9 ± 2.0
- Body weight (X ± SD) ([4]; leptin study, 0.1 mg/mouse ip twice a day for 7 days, day 4): 20.7 ± 2.3
- Body weight (X ± SD) ([4]; leptin study, 0.1 mg/mouse ip twice a day for 7 days, day 7): 20.1 ± 2.1
- weight loss when used alone ([4]; our animal model, pilot experiments, used alone): did not induce significant weight loss
